Results published in US8609644B2, “Amino derivatives of androstanes and androstenes as medicaments for cardiovascular disorders” (priority 2006, dated 2013).
Where a name gives a salt, the structure may show the parent alone. Read-outs that look alike come from different tables or passages of the source.

Legend:
anesthetized guinea-pig = assay: Inotropic effect and lethal dose, slow intravenous infusion (over 90 minutes) in anesthetized guinea-pig; conditions: for ED80 / ED (max) / Emax: Cavia porcellus, iv, 1.5 h; for ED80: read-out: ED80 (inotropic potency, dose increasing +dP/dTmax by 80%); for ED (max): read-out: EDmax (dose inducing maximum positive inotropic effect); for Emax: read-out: Emax % increase in +dP/dTmax; for % decrease from Emax after 20 min from the end of the infusion: duration of the inotropic effect; for Maximum dose infused: maximum dose infused in the survived animals; for Dead/treated: slow i.v. infusion over 90 minutes
Na+, K+-ATPase = Na+, K+-ATPase (Canis lupus familiaris, UniProt P50997); assay: biochemical; parameters: species or system dog
[1] = dog kidney enzyme, read-out: Na+, K+-ATPase Inhibition IC50
[2] = read-out: Na+, K+-ATPase Inhibition IC50

Row | Compound | IC50 (Na+, K+-ATPase; [1]) [nM] | IC50 (Na+, K+-ATPase; [2]) [nM] | other results
1 | CON=C1CC2C3CCC(=O)C3(C)CCC2C2(C)CCC(=NOCCN)CC12 (mixture of isomers) [I-aw, (E,Z)-3-(2-Aminoethoxyimino)-6-(E)-methoxyiminoandrostan-17-one hydrochloride] | 17 |  | ED80 (anesthetized guinea-pig): 2.35 µmol/kg; ED (max) (anesthetized guinea-pig): 5.77 µmol/kg; Emax (anesthetized guinea-pig): 183%; % decrease from Emax after 20 min from the end of the infusion (anesthetized guinea-pig): 100%; Maximum dose infused (anesthetized guinea-pig): 12.7 µmol/kg; Dead/treated (anesthetized guinea-pig): 0/5
2 | C=C1C[C@H]2[C@@H]3CCC(=O)[C@@]3(C)CC[C@@H]2[C@@]2(C)CCC(=NOCCN)C[C@]12O (mixture of isomers) [I-bq, (E,Z) 3-(2-Aminoethoxyimino)-5α-hydroxy-6-methylenandrostane-17-one hydrochloride] |  |  | ED80 (anesthetized guinea-pig): 5.87 µmol/kg; ED (max) (anesthetized guinea-pig): 15.7 µmol/kg; Emax (anesthetized guinea-pig): 173%; % decrease from Emax after 20 min from the end of the infusion (anesthetized guinea-pig): 10%; Maximum dose infused (anesthetized guinea-pig): 25.3 µmol/kg; Dead/treated (anesthetized guinea-pig): 0/3; IC50 (Na+, K+-ATPase; Na+, K+-ATPase Inhibition IC50): 99 nM
3 | C=C1C[C@@H]2[C@H](CC[C@]3(C)C(=O)CC[C@@H]23)[C@@]2(C)CC[C@@H](SCCCNC)C[C@H]12 [I-ea, 3α-(3-N-Methylaminopropylthio)-6-methyleneandrostane-17-one fumarate] | 2800 |  | 
4 | CC(C)(CN)ON=C1CC[C@@]2(C)C(C1)/C(=N/O)C[C@@H]1[C@@H]2CC[C@]2(C)C(=O)CC[C@@H]12 (stereo partly shown) [I-eo, (E,Z) 3-(3-Amino-2-methyl-2-propoxyimino)-6-(E)-hydroxyiminoandrostane-17-one hydrochloride] |  | 20 | 
5 | CC(=O)N[C@H]1C[C@@H]2[C@H](CC[C@]3(C)C(=O)CC[C@@H]23)[C@@]2(C)CCC(=NOCCN)C[C@H]12 (mixture of isomers) [I-bf, (E,Z) 3-(2-Aminoethoxyimino)-6α-acetamidoandrostan-17-one hydrochloride] | 45000 |  | 
6 | CNCCCON=C1CCC2(C)C(C1)C(CO)C(O)C1C3CCC(=O)C3(C)CCC12 (mixture of isomers) [I-ek, (E,Z) 3-(3-N-Methylaminopropoxyimino)-6α-hydroxymethyl-7α-hydroxyandrostane-17-one hydrochloride] | 320 |  | 
7 | C[C@]12CC/C(=N/OCCN)CC1[C@@H](C(N)=O)C[C@@H]1[C@@H]2CC[C@]2(C)C(=O)CC[C@@H]12 (stereo partly drawn) [I-as, (Z) 3-(2-Aminoethoxyimino)-6α-carbamoylandrostan-17-one hydrochloride] |  | 630 | 
8 | C[C@]12CCC(=NOCCN)C[C@@H]1C(=C(F)F)C[C@@H]1[C@@H]2CC[C@]2(C)C(=O)CC[C@@H]12 (mixture of isomers) [I-bh, (E,Z) 3-(2-Aminoethoxyimino)-6-difluoromethyleneandrostan-17-one hydrochloride] |  |  | IC50 (Na+, K+-ATPase; Na+, K+-ATPase Inhibition IC50): 190 nM
9 | CC(=O)NC[C@H]1C[C@@H]2[C@H](CC[C@]3(C)C(=O)CC[C@@H]23)[C@@]2(C)CCC(=NOCCN)CC12 (stereo partly drawn) [I-bm, (E,Z) 3-(2-Aminoethoxyimino)-6α-acetamidomethylandrostan-17-one hydrochloride] |  | 3600 | 
10 | C[C@]12CCC(=NOCCN)CC1C1(CO1)C[C@@H]1[C@@H]2CC[C@]2(C)C(=O)CC[C@@H]12 (stereo partly drawn) [I-bc, (E,Z)-3-(2-Aminoethoxyimino)androstane-6(R)-(spiro-2′-oxirane)-17-one hydrochloride] |  | 910 | 
11 | CNCCCON=C1CC[C@@]2(C)[C@H](C1)[C@@H](C(N)=O)C[C@@H]1[C@@H]2CC[C@]2(C)C(=O)CC[C@@H]12 (mixture of isomers) [I-cn, (Z,E) 3-(3-N-Methylaminopropoxyimino)-6α-carbamoylandrostan-17-one hydrochloride] | 1900 |  | 
12 | CC12CCC3C(CC(O[N+](=O)[O-])C4CC(=NOCCN)CCC43C)C1CCC2=O (single isomer, unassigned) [I-aa, (E,Z) 3-(2-Aminoethoxyimino)-17-oxoandrostane-6α-yl nitrate fumarate] | 330 |  | 
13 | CNCCCOC1CCC2(C)C(C1)C(CO)CC1C3CCC(=O)C3(C)CCC12 (stereo not drawn) [I-du, 3β-(3-N-Methylaminopropoxy)-6α-hydroxymethylandrostane-17-one fumarate] | 1100 |  | 
14 | C[C@]12CCC(=NOCCN)C[C@@H]1[C@]1(CO1)C[C@@H]1[C@@H]2CC[C@]2(C)C(=O)CC[C@@H]12 (mixture of isomers) [I-bb, (E,Z)-3-(2-Aminoethoxyimino)androstane-6(S)-(spiro-2′-oxirane)-17-one hydrochloride] | 870 |  | 
15 | C[C@]12CC[C@@H](/C=C\CCCCN)CC1/C(=N/O)C[C@@H]1[C@@H]2CC[C@]2(C)C(=O)CC[C@@H]12 (stereo partly drawn) [I-dj, 3α-(6-Aminohex-1-(Z)-enyl)-6-(E)-hydroxyiminoandrostan-17-one fumarate] |  | 1300 | 
16 | C[C@]12CCC(=NOCCN)CC1C1(CC1)C[C@@H]1[C@@H]2CC[C@]2(C)C(=O)CC[C@@H]12 (stereo partly shown) [I-bl, E,Z) 3-(2-Aminoethoxyimino)-6-(spirocyclopropane)androstane-17-one hydrochloride] |  | 850 | 
17 | COC(=O)C1CC2C3CCC(=O)C3(C)CCC2C2(C)CCC(=NOCCN)CC12 (mixture of isomers) [I-au, (E,Z) 3-(2-Aminoethoxyimino)-6α-methoxycarbonylandrostan-17-one hydrochloride] | 410 |  | 

Row | Compound | IC50 (Na+, K+-ATPase; [1]) [nM] | IC50 (Na+, K+-ATPase; [2]) [nM] | other results
18 | C[C@]12CC[C@H]3[C@@H](C[C@@H](C#N)[C@@]4(O)CC(=NOCCN)CC[C@]34C)[C@@H]1CCC2=O (mixture of isomers) [I-ae, (E,Z) 3-(2-Aminoethoxyimino)-5α-hydroxy-6β-cyanoandrostane-17-one fumarate] | 11000 |  | 
19 | COCC1CC2CC(=NOCCN)CCC2(C)C2CCC3(C)C(=O)CCC3C12 (mixture of isomers) [I-ed, (E,Z) 3-(2-Aminoethoxyimino)-7α-methoxymethylandrostane-17-one hydrochloride] | 38000 |  | 
20 | C=C1C[C@@H]2[C@H](CC[C@]3(C)C(=O)CC[C@@H]23)[C@@]2(C)CC[C@@H](SCCCN)CC12 (stereo partly drawn) [I-dz, 3α-(3-Aminopropylthio)-6-methyleneandrostane-17-one fumarate] | 1500 |  | 
21 | CC12CCC3C(CC(C(N)=O)C4CC(=NOCCN)CCC43C)C1CCC2=O (mixture of isomers) [I-at, (E,Z) 3-(2-Aminoethoxyimino)-6α-carbamoylandrostan-17-one fumarate] |  | 630 | 
22 | CNCCCON=C1CC[C@@]2(C)C(C1)[C@@H](CO)C(=O)[C@@H]1[C@@H]2CC[C@]2(C)C(=O)CC[C@@H]12 (stereo partly drawn) [I-ei, (E,Z) 3-(3-N-Methylaminopropoxyimino)-6α-hydroxymethylandrostane-7,17-dione fumarate] |  | 44 | 
23 | C=C1C[C@@H]2[C@H](CC[C@]3(C)C(=O)CC[C@@H]23)[C@@]2(C)CC[C@@H]([S@@+]([O-])CCCN)CC12 (stereo partly drawn) [I-eb, 3α-[(S)-3-Aminopropylsulfinyl]-6-methyleneandrostane-17-one fumarate] |  | 7200 | 
24 | C=C1C[C@@H]2[C@H](CC[C@]3(C)C(=O)CC[C@@H]23)[C@@]2(C)CC/C(=N\OCCCNC)C[C@H]12 [I-cj, (E) 3-(3-N-Methylaminopropoxyimino)-6-methyleneandrostan-17-one fumarate] |  |  | IC50 (Na+, K+-ATPase; Na+, K+-ATPase Inhibition IC50): 380 nM
25 | COC[C@H]1C[C@@H]2[C@H](CC[C@]3(C)C(=O)CC[C@@H]23)[C@@]2(C)CC/C(=N\OCCN)CC12 (stereo partly drawn) [I-aq, (E) 3-(2-Aminoethoxyimino)-6α-methoxymethylandrostan-17-one hydrochloride] | 500 |  | 
26 | C[C@]12CCC(=NOCCN)CC1[C@@H](C=NO)C[C@@H]1[C@@H]2CC[C@]2(C)C(=O)CC[C@@H]12 (stereo partly drawn) [I-an, 3-(E,Z)-(2-Aminoethoxyimino)-17-oxoandrostane-6α-carbaldehyde (E,Z)-oxime fumarate] |  | 390 | 
27 | C[C@]12CCC(=NOCCN)C[C@@H]1C[C@@H](CO)[C@@H]1[C@@H]2CC[C@]2(C)C(=O)CC[C@@H]12 (mixture of isomers) [I-bz, (E,Z) 3-(2-Aminoethoxyimino)-7α-hydroxymethylandrostane-17-one hydrochloride] | 1100 |  | 
28 | C=C1CC2C3CCC(=O)C3(C)CCC2C2(C)CCC(=NOCCCNC)CC12 (mixture of isomers) [I-ck, (E,Z) 3-(3-N-Methylaminopropoxyimino)-6-methyleneandrostane-17-one fumarate] |  |  | IC50 (Na+, K+-ATPase; Na+, K+-ATPase Inhibition IC50): 570 nM
29 | C[C@H]1C[C@H]2CC(=NOCCN)CC[C@]2(C)[C@H]2CC[C@]3(C)C(=O)CC[C@H]3[C@H]12 (mixture of isomers) [I-by, (E,Z) 3-(2-Aminoethoxyimino)-7β-methylandrostane-17-dione hydrochloride] |  |  | IC50 (Na+, K+-ATPase; Na+, K+-ATPase Inhibition IC50): 640 nM
30 | CC12CCC3C(CC4(OCCO4)C4CC(=NOCCN)CCC34C)C1CCC2=O (mixture of isomers) [I-ag, (E,Z) 3-(2-Aminoethoxyimino)-6-(2-spiro-1,3-dioxolane)androstane-17-one fumarate] | 5400 |  | 
31 | 3α-(3-Aminopropylthio)-6-(E)-hydroxyiminoandrostane-17-one hemifumarate [I-dw] |  | 850 | 
32 | C=CC1CC2C3CCC(=O)C3(C)CCC2C2(C)CCC(=NOCCN)CC12 (stereo not drawn) [I-al, (E,Z) 3-(2-Aminoethoxyimino)-6α-vinylandrostan-17-one hydrochloride] |  |  | IC50 (Na+, K+-ATPase; Na+, K+-ATPase Inhibition IC50): 530 nM
33 | CNCCCON=C1CCC2(C)C(CC(=O)C3C4CCC(=O)C4(C)CCC32)C1 (mixture of isomers) [I-cu, (E,Z) 3-(3-N-Methylaminopropoxyimino)androstane-7,17-dione fumarate] |  |  | IC50 (Na+, K+-ATPase; Na+, K+-ATPase Inhibition IC50): 390 nM
34 | COCC1CC2C3CCC(=O)C3(C)CCC2C2(C)CCC(=NOCCN)CC12 (mixture of isomers) [I-ak, (E,Z) 3-(2-Aminoethoxyimino)-6β-methoxymethylandrostan-17-one hydrochloride] | 3000 |  | 
